Results from patent US11591298B2, “Bisaminoquinoline compounds, pharmaceutical compositions prepared therefrom and their use” (THE TRUSTEES OF THE UNIVERSITY OF PENNSYLVANIA, priority 2011, dated 2023).
Read-outs that look alike come from different tables or passages of the source.

What was measured:
c8161 cells [1] = assay: MTT assay in c8161 cells at 72 hours; assay type: cell-based; conditions: Lys01 versus Lys05
Protocol: (§1) FIGS. 5A, 5B. […] (5A) Immunoblotting against LC3 and p62 in c8161 cells treated as indicated (5B) MTT assay in c8161 cells at 72 hours. HCQ: Hydroxychloroquine.
(§2) Lys05, the trihydrochloride salt of Lys01 was synthesized to enhance aqueous solubility and to enable in vivo studies. […] To investigate the safety of Lys05 and its in vivo effects on autophagy, c8161 xenografts matched for tumor size were treated with intraperitoneal (i.p.) daily PBS, or equimolar doses of HCQ or Lys05 (HCQ 60 mg/kg (138 nmoles/g), Lys05 76 mg/kg (138 nmoles/g)) for 48 hours. […] After 48 hours of treatment mice were euthanized, and tumors were processed for electron microscopy (EM).

[2] = system: LN229 (glioma), 1205Lu (melanoma), HT-29 (colon) and c8161 (melanoma) cells; assay: MTT assay (72 hours) in 4 cell lines; assay type: cell-based; conditions: range over the 4 cell lines tested
Protocol: FIGS. 4A, 4B, 4C, 4D. […] White arrows: small puncta; red arrows: dense puncta. Graphs show mean+/−SEM puncta/cell. (4B) Representative electron micrographs of LN229-GFP-LC3 cells treated (4 hours) with DMSO, HCQ 10 μM, or Lys01 10 μM Arrows: Autophagic vesicles. (4C) LC3 immunoblotting of LN229 cells treated for 24 hours an indicated; calculated ratio of LC3II/LC3I ratios for bafilomycin versus control co-treatment. […] (4D) MTT assay (72 hours) for 4 cell lines. Red: Lys01, Blue: Lys02, Purple: Lys03 Green: Lys04 Orange: HCQ. Values presented are means+/−SEM with 5 replicates per treatment.
The MTT assay was used to assess viable cells at 72 hours.

[3] = system: LN229 (human glioblastoma); assay: Cell death of cultured LN229 cells; assay type: cell-based; conditions: concentrations of 10 μM or higher, between 4-24 hours
c8161 cells [4] = assay: Immunoblotting against LC3 and p62 in c8161 cells; assay type: cell-based; conditions: Lys01 versus Lys05
Protocol: as §1, §2

[5] = system: LC3II/LC3I ratio in LN229 cells; assay: LC3 immunoblotting (LC3II/LC3I ratio) in LN229 cells; assay type: cell-based, human; conditions: concentration of 10 μM, 4 hours
Protocol: FIG. 3. Effects of Lys01-Lys04 on LC3 immunoblotting Immunoblotting and quantification of LC3II/LC3I ratio in lysates from LN229 cells treated for 4 hours. The graphs show (mean+/−SD) LC3II/LC3I ratios of each treatment normalized to the LC3II/LC3I ratio of control treated cells for each experiment.
LN229 (human glioblastoma) were treated with Lys01 and derivatives Lys02, Lys03, Lys04, HCQ and CQ. […] LC3 is a ubiquitin-like protein which exists as an unconjugated form (LC3I) or conjugated to AV membranes (LC3II) (25). The ratio of LC3II/LC3I reflects the accumulation of AV in cells, and therefore effective autophagy inhibition.

HCC827 = assay: Cell death after 24 hours in HCC827 cells; assay type: cell-based; conditions: 10 μM
1205Lu = assay: Cell death after 24 hours in 1205Lu cells; assay type: cell-based; conditions: 10 μM
P. falciparum = P. falciparum strains grown in vitro in human RBC (Table 2, FIG. 17); assay type: cell-based; conditions: some CQ-resistant cell lines; values only in FIG. 17
Text: FIG. 17, Table 2 provides IC50 (M) values of a number of compounds according to the present invention in P. falciparum.
There is a similar activity profile for anticancer activity of Lys01 derivatives and malaria cytotoxicity.

LN229 GFP-LC3 cells [6] = assay: GFP-LC3 puncta imaging in LN229 GFP-LC3 cells; assay type: cell-based, human; conditions: for GFP-LC3 punctate fluorescence: within 4 hours
acid phosphatase [7] = conditions: 1205Lu cells; 10 μM; within 24 hours
mice [8] = conditions: mouse, in vivo, ip, 76 mg/kg
Protocol: For chronic treatment experiments the 1205Lu melanoma model was chosen over the c8161 xenograft model because c8161 xenografts tend to spontaneously ulcerate confounding tumor measurements and safety analysis. Ten mice bearing 1205Lu xenografts were matched for tumor volume per cohort were assigned to either PBS, HCQ 60 mg/kg i.p. or Lys05 76 mg/kg i.p. (equimolar dosing) dosed for 3 days of daily treatment with 2 days off treatment (3/5 days) for all 3 treatment groups, to allow for symptom recovery and to avoid excess toxicity.
Paneth cell dysfunction, including reduced size and number of eosinophilic lysozyme-containing granules, has previously been described as the pathognomonic sign of autophagy deficiency in mice and a subset of Crohn's disease patients that have a genetic deficiency in the essential autophagy gene ATG16L1 (31).

mice [9] = system: mice
Protocol: as §2

1205Lu xenografts = assay: 1205Lu xenograft antitumor activity (14 days); assay type: in vivo, nude mice
[10] = Acridine orange staining of acidic vesicles; assay type: cell-based; conditions: 24 hours
acid phosphatase [11] = conditions: 1205Lu xenograft tumors; after 14 days of treatment
cathepsin D [12] = conditions: 1205Lu xenograft tumors; 14 days
LN229 GFP-LC3 cells [13] = assay: Bafilomycin clamp experiment (LC3 immunoblotting); assay type: cell-based, human; conditions: 24 hours; HCQ 10 μM, Lys01 10 μM, rapamycin
Protocol: FIGS. 4A, 4B, 4C, 4D. Autophagy inhibition and cytotoxicity of Lys01 compared to HCQ (4A) Representative images of LN229 GFP-LC3 cells treated as indicated for 4 hours. White arrows: small puncta; red arrows: dense puncta. Graphs show mean+/−SEM puncta/cell. (4B) Representative electron micrographs of LN229-GFP-LC3 cells treated (4 hours) with DMSO, HCQ 10 μM, or Lys01 10 μM Arrows: Autophagic vesicles. (4C) LC3 immunoblotting of LN229 cells treated for 24 hours an indicated; calculated ratio of LC3II/LC3I ratios for bafilomycin versus control co-treatment. Above the dashed line indicates an autophagy inducer or control, below the dashed line indicated an autophagy inhibitor. (4D) MTT assay (72 hours) for 4 cell lines. Red: Lys01, Blue: Lys02, Purple: Lys03 Green: Lys04 Orange: HCQ. Values presented are means+/−SEM with 5 replicates per treatment.
To further characterize the effects of Lys01 on autophagy, LN229 GFP-LC3 cells were treated with Lys01 or HCQ (FIG. 4A). […] Electron micrographs of LN229 GFP-LC3 cells treated with DMSO, HCQ, or Lys01 further characterized the significant morphological difference in the size and number of vesicles produced by blockade of autophagy with these agents (FIG. 4B). Thus, Lys01 produces morphological changes more pronounced than HCQ, a known lysosomal inhibitor, at 10-fold lower concentrations. […]

[14] = assay type: cell-based; conditions: within 30 minutes
cathepsin D [15] = conditions: 1205Lu cells; within 24 hours; compared to HCQ- or PBS-treated cells
[16] = system: HT-29 colon cancer xenografts
Protocol: (§3) FIGS. 6A, 6B, 6C, 6D, 6E, 6F, 6G. […] (6A) Representative electron micrographs (12,000×) of c8161 xenograft tumors harvested after 2 days of daily i.p. treatment with PBS, HCQ 60 mg/kg, or Lys05 76 mg/kg. Arrows: autophagic vesicles; scale bar 2 μm (6B) Quantification of mean+SEM number of autophagic vesicles/cell from two representative tumors from each treatment group. (C-D) 1205Lu xenografts were treated with PBS (blue), HCQ 60 mg/kg ip (green), or Lys05 76 mg/kg (red) i.p. every 3/5 days. (6C) Tumor volumes over 14 days (6D) Daily tumor growth rate. (E-G) HT29 xenografts were generated in the flanks of nude mice and treated with PBS, Lys05 10 mg/kg/ip daily, Lys05 40 mg/kg ip daily, or Lys05 80 mg/kg ip every 3/5 days. (6E) Average daily tumor growth rate. (6F) Tumor volumes over 14 days.
(§4) FIGS. 7A, 7B, 7C. […] (7A) Immunoblotting against LC3 in lysates from individual c8161 tumors treated as indicated with daily i.p. injections for 48 hours. […] Arrows: Autophagic vesicle (white); apoptotic cell (orange) (7C) Immunoblotting against LC3 in HT29 xenografts treated with daily dosing (10, 40 mg/kg) or 3/5 days (80 mg/kg) for 14 days.

c8161 xenografts = system: c8161 xenografts
Protocol: as §3, §4, §2

mice [17] = system: mice; remark: listed apart in the source

SMILES: CN(CCNc1ccnc2cc(Cl)ccc12)CCNc1ccnc2cc(Cl)ccc12 [Lys01]
- IC50 values in the MTT assay (c8161 cells [1]): identical
- IC50 [2]: 4 to 8 µM
- cell death of cultured cells [3]: Near complete cell death
- LC3II/LC3I ratio (c8161 cells [4]): equivalent dose-dependent increases
- autophagy cargo protein p62 (c8161 cells [4]): accumulation
- potency as autophagy inhibitor relative to HCQ or CQ (LC3 immunoblotting) [5]: > 10 fold
- cell death (HCC827): Near complete cell death
- cell death (1205Lu): Near complete cell death
- IC50, activity compared to artesunate (P. falciparum): more active than artesunate
- GFP-LC3 punctate fluorescence (LN229 GFP-LC3 cells [6]; 1 μM): numerous small puncta
- increase in GFP-LC3 puncta per cell, 10 μM Lys01 compared to 10 μM HCQ (LN229 GFP-LC3 cells [6]; 10 μM, 4 hours): 5 fold
- GFP-LC3 punctate fluorescence (LN229 GFP-LC3 cells [6]; 10 μM): dense puncta
- cell death (LN229 GFP-LC3 cells [6]; 100 μM): dead by 4 hours
- average number of vesicles per cell (LN229 GFP-LC3 cells [6]; Lys01 10 μM versus 100 μM HCQ): higher than in cells treated with 100 μM HCQ

SMILES: CN(CCNc1ccnc2cc(Cl)ccc12)CCNc1ccnc2cc(Cl)ccc12.Cl.Cl.Cl [Lys05]
- reduction in acid phosphatase activity in the lysosomal fraction versus PBS treated cells (acid phosphatase [7]): 43%
- clinical signs (mice [8]): lethargic with arched backs
- histology of the ileum: Paneth cells (mice [8]): dysmorphic Paneth cells
- IC50 values in the MTT assay (c8161 cells [1]): identical
- mortality (mice [9]; daily i.p. for 48 hours, HCQ 60 mg/kg, Lys05 76 mg/kg): no mice died
- clinical signs (mice [9]; mouse, in vivo, ip, 76 mg/kg): arched backs and lethargy
- tumor growth (growth curves) compared to controls (1205Lu xenografts; Lys05 76 mg/kg i.p. 3/5 days, 14 days): significantly impaired
- reduction in the average daily tumor growth rate compared to vehicle treated controls (1205Lu xenografts; Lys05 76 mg/kg i.p. 3/5 days, p=0.002): 53%
- average daily tumor growth rate (1205Lu xenografts; Lys05 76 mg/kg i.p. 3/5 days, vehicle 31.2): 14.6 mm^3/day
- tumor necrosis (1205Lu xenografts; center of tumors, after 14 days): Extensive tumor necrosis
- increase in AV/cell compared to control treated tumors (1205Lu xenografts; end of 14 days of treatment, HCQ 60 mg/kg, Lys05 76 mg/kg i.p. 3/5 days): 6 fold
- acidic vesicles (acridine orange) ([10]; 10 μM): accumulation of acidic vesicles
- acidic vesicles (acridine orange) ([10]; 50 μM): no acidic vesicles were observed
- increase in extralysosomal acid phosphatase activity (acid phosphatase [11]): 1.75 fold
- LC3II/LC3I ratio (c8161 cells [4]): equivalent dose-dependent increases
- autophagy cargo protein p62 (c8161 cells [4]): accumulation
- increased acid-dependent processing of cathepsin D within the whole cell homogenate (cathepsin D [12]): not observed
- LC3II/LC3I ratio in bafilomycin treated cells compared to control cells (LN229 GFP-LC3 cells [13]): did not demonstrate an increase
- Lysotracker-positive puncta ([14]; 10 μM): fewer Lysotracker-positive puncta
- Lysotracker-positive puncta ([14]; 100 μM): fewer Lysotracker-positive puncta
- acid-dependent processing of immature cathepsin D to the mature activated form within the lysosome (cathepsin D [15]): decreased acid-dependent processing
- excised tumor weights ([16]; 10 mg/kg daily dosing, end of the experiment): significant antitumor activity
- average daily tumor growth rate ([16]; 10, 40 mg/kg i.p. daily, 80 mg/kg i.p. 3/5 days): significantly impaired in a dose-dependent fashion
- LC3II/LC3I ratio in tumor lysates compared to control ([16]; after 14 days, all Lys05 doses including 10 mg/kg): significant increase
- tumor growth curves compared to control ([16]; all 3 doses of Lys05): significant tumor growth impairment
- LC3II/LC3I levels in tumors compared to control- or HCQ-treated tumors (c8161 xenografts; 76 mg/kg i.p. daily, 48 hours): Significantly higher
- increase in the mean number of AV/cell compared to control- or HCQ-treated tumors (c8161 xenografts; Lys05 76 mg/kg i.p. daily, 48 hours, electron microscopy): > 2 fold
- cleaved caspase 3 levels compared to HCQ- or PBS-treated tumors (c8161 xenografts; after 48 hours of treatment): elevated
- mice euthanized early for bowel obstruction (mice [17]; 80 mg/kg i.p. 3/5 days): 2/8
- bowel thickening and obstruction (mice [17]; mouse, in vivo): limited to 80 mg/kg dose cohort
